Reference: article PMC10987496, “Activity-stability trade-off observed in variants at position 315 of the GH10 xylanase XynR” (Scientific Reports, 2024)

Target: T1, XynR (WT) (Halalkalibacterium halodurans, UniProt P07528)
T1 construct: gene xynA; pET-21b(+)-XynR expressed in E. coli BL21(DE3), purified on HisTrap (His-tagged); residues 2-359 modelled in 2 chains; catalytic E150/E256
Test: X-ray crystallography, […] A (co-crystallisation and soaking)
Type: binding
Conditions: 0.35 M xylobiose, Tris-HCl pH 8.0 mixed with reservoir pH 4.6 (0.02 M CaCl2, acetate, MPD), 20 °C; active site, subsites +1 and +2

T1 sequence (P07528 46-396): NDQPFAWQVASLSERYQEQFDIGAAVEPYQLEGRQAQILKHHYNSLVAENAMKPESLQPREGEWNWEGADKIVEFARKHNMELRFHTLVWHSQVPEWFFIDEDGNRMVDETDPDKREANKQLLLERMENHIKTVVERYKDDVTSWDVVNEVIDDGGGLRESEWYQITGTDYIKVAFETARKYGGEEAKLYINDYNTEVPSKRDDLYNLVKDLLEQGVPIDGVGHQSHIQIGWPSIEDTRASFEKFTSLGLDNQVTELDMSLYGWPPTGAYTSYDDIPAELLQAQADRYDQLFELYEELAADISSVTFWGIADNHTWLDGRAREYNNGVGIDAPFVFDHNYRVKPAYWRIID

OC1OC[C@@H](O[C@@H]2OC[C@@H](O)[C@H](O)[C@H]2O)[C@H](O)[C@H]1O (stereo partly shown) [xylobiose]
X-ray crystallography, 1.80 A (co-crystallisation and soaking): we made crystallographic analysis of WT complexed with xylobiose
